Experimental data taken from patent publication US6030943A, “Dehydrodidemnin B as an L-type calcium channel enhancer” (priority 1998, dated 2000).
Starred links: 1 amine or outer side, 2 acyl side, 3 side chain; linkers in the order of their positions; H or OH if unused. Positions of bridges follow the written chain, without caps; N, C: chain ends. Non-standard residues stand in square brackets, D forms with d. Residues, ends and D or L forms follow the SMILES beside them. *: point of attachment. X1 = CC[C@H](C)[C@@H](N[*:1])[C@@H](O)CC(=O)O[C@H](C(=O)[C@H](C)C(=O)[*:2])C(C)C; NMeY = CN[C@@H](Cc1ccc(O)cc1)C(=O)O; dNMeL = CN[C@H](CC(C)C)C(=O)O; Pyruvoyl = CC(=O)C(=O)*

How the values were obtained:
[1] = Effect on blood pressure (statement, no method described); details: in vivo
L-type calcium channel = assay: Whole-cell patch clamp measurement of calcium current (ICa) in isolated human atrial myocytes; format: cell-based; details: for action on human atrial ICa (current amplitude): whole-cell patch clamp, 22° C., composite dose-response curve (FIG. 2), compared with cells not exposed to drug
Experimental: Human atrial myocytes were obtained from specimens of human right atrial appendage obtained during surgery from hearts of patients undergoing cardiopulmonary bypass. Tissue samples were quickly immersed in a cardioplegia solution consisting of (in mmol/L): 50 KH2 PO4, 8 MgSO4, 10 NaHO3, 5 adenosine, 25 taurine, 140 glucose, and 100 mannitol, titrated to a pH of 7.4 and bubbled with 100% O2 at 0-4° C. Specimens were then minced into 0.5-1 mm cubes and transferred to a 50 ml conical tube containing an ultra-low calcium wash solution containing (in mmol/L); 137 NaCl, 5 KH2 PO4, 1 MgSO4, 10 taurine, 10 glucose, 5 HEPES, and 100 μmol/L (μM) EGTA; pH=7.4 (22-24° C.).
The tissue was next gently agitated by continuous bubbling with 100% O2 for 5 minutes. The tissue was then incubated in 5 ml of solution containing (in mmol/L): 137 NaCl, 5 KH2 PO4, 10 taurine, 10 glucose, 5 HEPES, supplemented with 0.1% bovine albumin, 2.2 mg/ml collagenase type V and 1.0 mg/ml protease type XXIV (Sigma Chemical), pH=7.4 (37° C.) and bubbled continuously with 100% O2. The supernatant was removed after 40 minutes and discarded. The chunks were incubated in a solution of the same ionic composition but supplemented with only collagenase and 100 μmol/L CaCl2.
Microscopic examination of the medium was performed every 5-10 minutes to determine the number and quality of the isolated cells. When the yield appears to be maximal, the cell suspension was centrifuged for 2 minutes and the resulting pellet was resuspended in a modified Kraftbruhe solution containing (in mmol/L): 25 KCl, 10 KH2 PO4, 25 taurine, 0.5 EGTA, 22 glucose, 55 glutamic acid, and 0.1% bovine albumin, pH=7.3 (22-24° C.). Cells were used within 8 hrs after isolation. […]
Ionic currents were measured using the whole-cell variant of the patch clamp technique. […]
Calcium (Ca) currents were measured using an external solution having the composition (in mM): 1.8 CaCl2, 137 NaCl, 20 CsCl, 4 KCl, 1 MgCl2, 10 HEPES, 10 dextrose pH=7.4 with NaOH. […]

| SMILES | effect on blood pressure [1] | L-type calcium channel enhancement (L-type calcium channel; FIGS. 1A, 1B and 2) | action on human atrial ICa (current amplitude) (L-type calcium channel) |
| --- | --- | --- | --- |
| CC[C@H](C)[C@H]1NC(=O)[C@@H](NC(=O)[C@@H](CC(C)C)N(C)C(=O)[C@@H]2CCCN2C(=O)C(C)=O)[C@@H](C)OC(=O)[C@H](Cc2ccc(OC)cc2)N(C)C(=O)[C@@H]2CCCN2C(=O)[C@H](CC(C)C)NC(=O)[C@@H](C)C(=O)[C@H](C(C)C)OC(=O)C[C@@H]1O [Aplidine, dehydrodidemnin B] (Pyruvoyl-P[dNMeL]T[X1]LP[NMeY](Me); ester 3-C) | no effect on blood pressure | potent L-type calcium channel enhancer | highly effective, producing a very large increase in current amplitude |
| CC[C@H](C)[C@H]1NC(=O)[C@@H](NC(=O)[C@@H](CC(C)C)N(C)C(=O)[C@@H]2CCCN2C(=O)C(C)O)[C@@H](C)OC(=O)[C@H](Cc2ccc(OC)cc2)N(C)C(=O)[C@@H]2CCCN2C(=O)[C@H](CC(C)C)NC(=O)[C@@H](C)C(=O)[C@H](C(C)C)OC(=O)C[C@@H]1O (stereo partly shown) [Didemnin B] | – | – | no effect |
